Experimental data from patent publication US20200383959A1, “THERAPEUTIC AGENT CONTAINING PYRANODIPYRIDINE COMPOUND” (Eisai R&D Management Co., Ltd., priority 2017, published 2020).

Assays:
[1] = system: hyperalgesia to mechanical stimulation in STZ models; conditions: direct administration to the anterior cingulate cortex; Non Patent Literature 16; cited from earlier work
[2] = system: dystonia in the dt^sz model; conditions: Non Patent Literature 21; cited from earlier work
[3] = system: tremor in a harmaline animal model; conditions: Non Patent Literature 7; cited from earlier work
[4] = system: AMPA receptor; experiment: AMPA-induced intraneuronal calcium entry-suppressing action, primary culture of embryonic rat cerebral cortex neurons; type: cell-based; conditions: AMPA-induced increase of intracellular calcium, rat cortical neurons; read-out: IC50 for AMPA inhibition
Source text: [Test Example 1] AMPA-Induced Intraneuronal Calcium Entry-Suppressing Action
With regard to the AMPA receptor inhibitory action of the compounds, AMPA-induced intraneuronal calcium entry-suppressing action was examined using a primary culture system of embryonic rat cerebral cortex neurons.
<Culture conditions> Whole fetuses were removed from the uteri of Wistar rats at embryonic day 18 (Charles River Japan) anesthetized with isoflurane. Whole brains were removed from the whole fetuses, and the cerebral cortex was separated in Leibovitz's L-15 medium, or Hanks balanced salt solution containing 20% fetal bovine serum. The resulting material was treated with trypsin/DNase solution at 37° C. for 45 to 60 minutes. After the serum was added to stop the trypsin reaction, the resulting material was centrifuged at 1200 to 1500 rpm for 3 to 5 minutes. After the supernatant was removed, Neurobasal medium (containing 2% B-27 supplement and the like; hereinafter “Neurobasal medium”) was added, and the cells were uniformly dispersed by gently pipetting. The cell suspension was slightly stirred, and then filtered through a nylon mesh filter. Viable cells were counted using a hemocytometer, and diluted with Neurobasal medium to 8 to 10×10^5 cells/mL. […]
On the day of the assay, the medium was removed and replaced with a calcium measurement solution containing 5 to 10 μmol/L of Fura 2-AM (140 mmol/L sodium chloride, 5 mmol/L potassium chloride, 2 mmol/L magnesium chloride, 3 mmol/L calcium chloride, 24 mmol/L D(+)-glucose, 10 mmol/L HEPES, 1 μmol/L MK-801, pH 7.4), and the cells were treated in a CO2 incubator (5% CO2, 37° C.) for 1 to 2 hours. […] The plates were subsequently placed on the Fluorescence Drug Screening System 6000 (Hamamatsu Photonics K.K.). […] Changes in calcium concentration were measured as the changes in fluorescence intensity at excitation wavelengths of 340 nm and 380 nm (measurement wavelength: 540 nm). The rate of change of the intracellular calcium concentration was calculated in accordance with the following equation: […]

[5] = system: pain induced by STZ; experiment: Rat STZ model, von Frey test; type: in vivo
Description: [Test Example 3] Rat STZ Model
To confirm analgesic effect in an SFN model, an STZ model test with rats was conducted. The effect of the compound on pain induced 2 weeks after administration of STZ was examined.
Seven-week-old male SD rats (Charles River) were used for the test. To STZ aliquoted in advance into shading bottles, ice-cooled physiological saline (Otsuka Pharmaceutical Factory, Inc.) was added to reach 65 mg/mL, and the resultant was gently inversion-mixed with ice-cooling to dissolve STZ. After dissolving, the resultant was stored under ice-cooling, and used within 20 minutes from the initiation of preparation. About 20 hours after fasting, the animals were anesthetize with isoflurane, and the 65 mg/mL STZ solution was administered to each animal from the tail vein with a volume of […] over about 15 seconds by using a 1 mL syringe and a 26G injection needle. After 14 days after the administration of STZ, body weight and pain response before drug administration were measured (see description below on pain response), and animals for each of which the 50% response threshold to mechanical stimulation was 6 g or lower in von Frey test were selected, and grouped so as to provide no difference in 50% response thresholds and body weight among groups.
The compound was prepared for oral administration in DMSO:1 mol/L HCl:Cremophor EL:0.5% methylcellulose=10:5:5:80 to reach an administration volume of 10 mL/kg, and orally administered. As a negative control, only the mixed solvent without the compound (Vehicle) was used.
Evaluation of pain response was performed by using von Frey test under blind conditions, without involving any measurer for pain response in grouping and administration. Measurement of 50% response thresholds by von Frey test was performed in accordance with a method by Chaplan et al. (J Neurosci Methods 1994; 53: 55-63) using von Frey filaments. Each animal was put in a measurement cage with a floor of a metal mesh about 30 minutes before scheduled measurement time, and left to stand to habituate to the environmental change, and after the animal was confirmed to become calm measurement was initiated. Avon Frey filament (bending force: 0.4, 0.6, 1, 2, 4, 6, 8, 15 g; starting from 2 g) was pressed vertically to the center of the sole of the left hind leg for about 6 seconds until the filament bent, and avoidance response (such as putting back the leg) was observed. In accordance with a Dixon's up-down method (Annu Rev Pharmacol Toxicol 1980; 20: 441-462), 50% response thresholds were calculated. Measurement was performed at four points of time: before drug administration on Day 14, and 30 minute, 90 minutes, and 180 minutes after the administration.
The results were represented as mean±standard deviation. Dunnett's multiple comparison test was used for statistical analysis, and a significance level of 5% was used for both sides in all cases.

[6] = system: tremor induced by harmaline; experiment: Rat harmaline model (balance disorder / tremor score); type: in vivo; conditions: for Tremor score: 20 min before harmaline 20 mg/kg i.p., score 0-3
Description: [Test Example 2] Rat Harmaline Model
To confirm tremor-suppressing effect, a harmaline model test with rats was conducted. In this model, balance disorder observed after administration of harmaline serves as an evaluation index (Neuroscience Letter, 590, p 84-90 (2015)).
Four-week-old male SD rats (Charles River) were subjected to the test (two treatments in total, n=5 in each treatment). Balance disorder (one of tremor symptoms) induced by harmaline was used as an evaluation index (the above literature).
The compound was prepared for oral administration in 0.4% methylcellulose/5% Cremophor/5% 1 N hydrochloric acid/10% dimethylsulfoxide solution to reach an administration volume of 5 mL/kg, and orally administered. As a negative control, only the mixed solvent without the compound (Vehicle) was used. Harmaline (Sigma-Aldrich Co. LLC) was diluted with physiological saline (Otsuka Pharmaceutical Co., Ltd.) to prepare 4 mg/mL harmaline solution. Twenty minutes after administration of the compound, the 4 mg/mL harmaline solution was intraperitoneally administered (dose: 20 mg/kg). Balance disorder was observed during 10 minutes from 5 minutes to 15 minutes after the administration of harmaline, and scored in four grades of 0, 1, 2, and 3.
The results were represented as mean±standard deviation. Dunnett's multiple comparison test was used for statistical analysis, and results with p<0.05 were determined to be of statistically significant difference.

[7] = system: human glioma cell line; conditions: Non Patent Literature 34; cited from earlier work
[8] = pre-administration, statement in words

For `N#Cc1cc2c(cc1[N+](=O)[O-])=NC(=O)C(=O)N=2` [CNQX, 6-cyano-7-nitroquinoxaline-2,3-dione], the “Effect on fever and hyperalgesia to mechanical stimulation” value [1] is given as “suppressed”.
For `NS(=O)(=O)c1cccc2c1c([N+](=O)[O-])cc1[nH]c(=O)c(=O)[nH]c12` [NBQX, 2,3-dioxo-6-nitro-1,2,3,4-tetrahydrobenzo[f]quinoxaline-7-sulfonamide], the Anti-dystonia action [2] is given as “anti-dystonia action” and the Effect on tremor [3] is given as “suppresses tremor”.
`N#Cc1c(F)cccc1-c1cc2c(n(-c3cccnc3)c1=O)COc1cc(F)cnc1-2` [Compound (I), 2-fluoro-6-(3-fluoro-8-oxo-7-(pyridin-3-yl)-7,8-dihydro-6H-pyrano[3,2-b:5,4-b′]dipyridin-9-yl)benzonitrile] showed an IC50 [4] of 19.4 nM, a 50% response threshold ([5]; 0.6 mg/kg oral, Day 14, 30 min) of 7.3 ± 1.4 g and a 50% response threshold ([5]; 0.6 mg/kg oral, Day 14, 90 min) of 6.6 ± 1.4 g. The 50% response threshold ([5]; 0.6 mg/kg oral, Day 14, 180 min) was 5.2 ± 1.1 g, the 50% response threshold ([5]; 0.6 mg/kg oral, Day 14, Pre (before drug administration)) was 3.6 ± 0.4 g and the 50% response threshold ([5]; 2 mg/kg oral, Day 14, 30 min) was 9.5 ± 1.4 g. For the same molecule, the 50% response threshold ([5]; 2 mg/kg oral, Day 14, 90 min) was 8.0 ± 1.3 g, the 50% response threshold ([5]; 2 mg/kg oral, Day 14, 180 min) was 6.4 ± 1.1 g and the 50% response threshold ([5]; 2 mg/kg oral, Day 14, Pre (before drug administration)) was 3.6 ± 0.3 g. The 50% response threshold ([5]; 6 mg/kg oral, Day 14, 30 min) was 12.5 ± 1.1 g, the 50% response threshold ([5]; 6 mg/kg oral, Day 14, 90 min) was 12.1 ± 1.5 g and the 50% response threshold ([5]; 6 mg/kg oral, Day 14, 180 min) was 9.6 ± 1.4 g. For the same molecule, the 50% response threshold ([5]; 6 mg/kg oral, Day 14, Pre (before drug administration)) was 3.6 ± 0.4 g, the Analgesic effect [5, 8] was “Significant analgesic effect” and the Tremor score ([6]; 1 mg/kg oral) was 1.3 ± 0.2. The Tremor score ([6]; 2 mg/kg oral) was 0.6 ± 0.3, the Tremor score ([6]; 4 mg/kg oral) was 0.4 ± 0.2 and the “Effect on tremor scores” value [6, 8] was “statistically significant reduction of tremor scores”.
`Cc1ncc(-n2c3c(cc(-c4cccc(F)c4C#N)c2=O)-c2ncccc2OC3)cn1` [Compound (III), 2-fluoro-6-(7-(2-methylpyrimidin-5-yl)-8-oxo-7,8-dihydro-6H-pyrano[3,2-b:5,4-b′]dipyridin-9-yl)benzonitrile] showed an IC50 [4] of 44.3 nM.
In the case of `O=C(O)Cn1c(=O)c(=O)[nH]c2cc([N+](=O)[O-])c(-n3ccnc3)cc21` [YM872], the Antitumor effect [7] is given as “antitumor effect”.
`N#Cc1c(F)cccc1-c1cc2c(n(-c3cncnc3)c1=O)COc1cccnc1-2` [Compound (II), 2-fluoro-6-(8-oxo-7-(pyrimidin-5-yl)-7,8-dihydro-6H-pyrano[3,2-b:5,4-b′]dipyridin-9-yl)benzonitrile] showed an IC50 [4] of 29 nM.
